Measured values: ChEMBL document CHEMBL1201862, “PubChem BioAssay data set” (2004)
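96-well plates; 48 h exposure; 5 concentrations. Endpoints by linear interpolation between flanking doses. Not reached: highest tested concentration assigned. GI50: concentration for 50% inhibition of growth.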 Calls of active or inactive are those of the source. Cut-off read from the data, not from the text of the source: active = GI50 up to about 1.1 µM and inactive = higher.

Tests used:
Assay in all cases: growth of human tumour cells (NCI), 48 h
SK-MEL-5 = test system: SK-MEL-5
A498 = test system: A498
SK-MEL-28 = test system: SK-MEL-28
RPMI-8226 = test system: RPMI-8226
U-251 = test system: U-251
OVCAR-4 = test system: OVCAR-4
HL-60 = test system: HL-60
HCT-116 = test system: HCT-116
SF-539 = test system: SF-539
EKVX = test system: EKVX
NCI-H23 = test system: NCI-H23
TK-10 = test system: TK-10
SR = test system: SR
Malme-3M = test system: Malme-3M
OVCAR-5 = test system: OVCAR-5
NCI/ADR-RES = test system: NCI/ADR-RES
K562 = test system: K562
NCI-H522 = test system: NCI-H522
ACHN = test system: ACHN
UO-31 = test system: UO-31

Row | Compound | GI50 (SK-MEL-5) | GI50 (A498) | GI50 (SK-MEL-28) | GI50 (RPMI-8226) | GI50 (U-251) | GI50 (OVCAR-4) | GI50 (HL-60) | GI50 (HCT-116) | GI50 (SF-539) | GI50 (EKVX) | GI50 (NCI-H23) | GI50 (TK-10) | GI50 (SR) | GI50 (Malme-3M) | GI50 (OVCAR-5) | GI50 (NCI/ADR-RES) | GI50 (K562) | GI50 (NCI-H522) | GI50 (ACHN) | GI50 (UO-31)
1 | C=CCN1CN(C2CCCCC2)CSC1=S | 2.68 µM (inactive) | 14.3 µM (inactive) | 5.18 µM (inactive) | 1.04 µM (active) | 3.59 µM (inactive) | 12.8 µM (inactive) | 0.129 µM (active) | 1.55 µM (inactive) | 1.36 µM (inactive) | 15.6 µM (inactive) | 8.28 µM (inactive) | 3.69 µM (inactive) | 0.148 µM (active) | 3.16 µM (inactive) | 9.08 µM (inactive) | 8.83 µM (inactive) | 0.652 µM (active) | 2.8 µM (inactive) | 4.02 µM (inactive) | 8 µM (inactive)
2 | CCOC(=O)C(SCCO)C(C(=O)OCC)n1ccc(N)nc1=O (stereo not given) | > 100 µM (inactive) | > 100 µM (inactive) | > 100 µM (inactive) | > 100 µM (inactive) | > 100 µM (inactive) | > 100 µM (inactive) | > 100 µM (inactive) | > 100 µM (inactive) | > 100 µM (inactive) | > 100 µM (inactive) | > 100 µM (inactive) | > 100 µM (inactive) | > 100 µM (inactive) | > 100 µM (inactive) | > 100 µM (inactive) | > 100 µM (inactive) | > 100 µM (inactive) | > 100 µM (inactive) | > 100 µM (inactive) | > 100 µM (inactive)
3 | C[C@@]12C[C@@H](c3ccccc3O1)N1CCCCSC1=N2 | > 100 µM (inactive) | > 100 µM (inactive) | > 100 µM (inactive) | > 100 µM (inactive) | > 100 µM (inactive) | > 100 µM (inactive) | 3.46 µM (inactive) | > 100 µM (inactive) | > 100 µM (inactive) | > 100 µM (inactive) | > 100 µM (inactive) | > 100 µM (inactive) | > 100 µM (inactive) | > 100 µM (inactive) | > 100 µM (inactive) | > 100 µM (inactive) | > 100 µM (inactive) | > 100 µM (inactive) | > 100 µM (inactive) | > 100 µM (inactive)
4 | COc1cc(/C=C2/SC(c3ccccc3)N(c3ccccc3)C2=O)cc(OC)c1OC (stereo not given) | 12.1 µM (inactive) | > 100 µM (inactive) | > 100 µM (inactive) | 9.66 µM (inactive) | 59.6 µM (inactive) | 69.5 µM (inactive) | 35.6 µM (inactive) | 15.7 µM (inactive) | > 100 µM (inactive) | 51.6 µM (inactive) | 42.5 µM (inactive) | > 100 µM (inactive) | 14 µM (inactive) | 80.2 µM (inactive) | > 100 µM (inactive) | 48.2 µM (inactive) | 8.97 µM (inactive) | 21.7 µM (inactive) | 84.3 µM (inactive) | 29.5 µM (inactive)
5 | Nc1nc2c(ncn2Cc2ccc(CO)cc2)c(=O)[nH]1 | > 100 µM (inactive) | > 100 µM (inactive) | > 100 µM (inactive) | > 100 µM (inactive) | > 100 µM (inactive) | > 100 µM (inactive) | 4.42 µM (inactive) | > 100 µM (inactive) | > 100 µM (inactive) | > 100 µM (inactive) | > 100 µM (inactive) | > 100 µM (inactive) | 95.5 µM (inactive) | > 100 µM (inactive) | > 100 µM (inactive) | > 100 µM (inactive) | > 100 µM (inactive) | > 100 µM (inactive) | > 100 µM (inactive) | > 100 µM (inactive)
6 | COc1ccc(-n2c(N)c(C#N)[nH]c2=O)cc1 | > 10 µM (inactive) | > 10 µM (inactive) | > 10 µM (inactive) | > 10 µM (inactive) | > 10 µM (inactive) | > 10 µM (inactive) | > 10 µM (inactive) | > 10 µM (inactive) | > 10 µM (inactive) | > 10 µM (inactive) | > 10 µM (inactive) | > 10 µM (inactive) | > 10 µM (inactive) | > 10 µM (inactive) | 3.5 µM (inactive) | > 10 µM (inactive) | > 10 µM (inactive) | > 10 µM (inactive) | > 10 µM (inactive) | > 10 µM (inactive)
7 | COc1ccc2c(C)c(Oc3c(Cl)c(Cl)c(O)c(C#N)c3C#N)oc2c1 | > 100 µM (inactive) | > 100 µM (inactive) | > 100 µM (inactive) | > 100 µM (inactive) | > 100 µM (inactive) | > 100 µM (inactive) | > 100 µM (inactive) | > 100 µM (inactive) | > 100 µM (inactive) | > 100 µM (inactive) | > 100 µM (inactive) | > 100 µM (inactive) | > 100 µM (inactive) | > 100 µM (inactive) | > 100 µM (inactive) | > 100 µM (inactive) | > 100 µM (inactive) | > 100 µM (inactive) | > 100 µM (inactive) | > 100 µM (inactive)
8 | CCN(CC)c1ncnc2c1ncn2CCNC(CO)(CO)CO | > 100 µM (inactive) | > 100 µM (inactive) | > 100 µM (inactive) | > 100 µM (inactive) | > 100 µM (inactive) | > 100 µM (inactive) | > 100 µM (inactive) | > 100 µM (inactive) | > 100 µM (inactive) | > 100 µM (inactive) | > 100 µM (inactive) | > 100 µM (inactive) | > 100 µM (inactive) | > 100 µM (inactive) | > 100 µM (inactive) | > 100 µM (inactive) | > 100 µM (inactive) | > 100 µM (inactive) | > 100 µM (inactive) | > 100 µM (inactive)
9 | CCOC(=O)c1c(C)n(-c2ccc(C)cc2)c2c1cc(O)c1[nH]c3c(c12)CCCC3 | 11.9 µM (inactive) | 13.9 µM (inactive) | 16.3 µM (inactive) | 4.07 µM (inactive) | 14.8 µM (inactive) | 13.7 µM (inactive) | 7.4 µM (inactive) | 21.8 µM (inactive) | 15.7 µM (inactive) | 26.1 µM (inactive) | 20.3 µM (inactive) | 27.5 µM (inactive) | 0.0566 µM (active) | 17.7 µM (inactive) | 23.5 µM (inactive) | 39.8 µM (inactive) | 17.7 µM (inactive) | 12.7 µM (inactive) | 22.1 µM (inactive) | 13.9 µM (inactive)
10 | Oc1cccc2ccc(Br)nc12 | > 100 µM (inactive) | > 100 µM (inactive) | > 100 µM (inactive) | 97.9 µM (inactive) | > 100 µM (inactive) | > 100 µM (inactive) | 36.2 µM (inactive) | > 100 µM (inactive) | > 100 µM (inactive) | > 100 µM (inactive) | > 100 µM (inactive) | > 100 µM (inactive) | 62.4 µM (inactive) | > 100 µM (inactive) | > 100 µM (inactive) | > 100 µM (inactive) | > 100 µM (inactive) | > 100 µM (inactive) | > 100 µM (inactive) | > 100 µM (inactive)
11 | O/N=N/c1ccccn1.OCC1OC2OC3C(CO)OC(OC4C(CO)OC(OC5C(CO)OC(OC6C(CO)OC(OC7C(CO)OC(OC1C(O)C2O)C(O)C7O)C(O)C6O)C(O)C5O)C(O)C4O)C(O)C3O (stereo not given) | 30.5 µM (inactive) | > 100 µM (inactive) | 62.5 µM (inactive) | 27.3 µM (inactive) | > 100 µM (inactive) | > 100 µM (inactive) | 28.1 µM (inactive) | 41.6 µM (inactive) | 52.8 µM (inactive) | > 100 µM (inactive) | > 100 µM (inactive) | > 100 µM (inactive) | 0.583 µM (active) | 61 µM (inactive) | > 100 µM (inactive) | 31.9 µM (inactive) | 48.4 µM (inactive) | 68.2 µM (inactive) | > 100 µM (inactive) | > 100 µM (inactive)
12 | CC(C)[C@@H]1ON1C(C)c1ccccc1 (stereo not given in full) | > 100 µM (inactive) | > 100 µM (inactive) | > 100 µM (inactive) | > 100 µM (inactive) | > 100 µM (inactive) | > 100 µM (inactive) | 94.8 µM (inactive) | > 100 µM (inactive) | > 100 µM (inactive) | > 100 µM (inactive) | > 100 µM (inactive) | > 100 µM (inactive) | > 100 µM (inactive) | > 100 µM (inactive) | > 100 µM (inactive) | > 100 µM (inactive) | > 100 µM (inactive) | > 100 µM (inactive) | > 100 µM (inactive) | > 100 µM (inactive)
